Results published in patent US4551547A, “Biocidal 2-aryl-1, 3-cyclopentanedione enol ester compounds” (Union Carbide Corporation, priority 1983, dated 1985).
≈ marks a conversion by molar mass, not a printed value.

Tests used:
Corn = test: Post-emergent herbicidal test, corn; type: in vivo; design: key: 1: no perceptible injury; 2: intermediate degrees of injury; 3: intermediate degrees of injury; 4: intermediate degrees of injury; 5: the plant was dead; details: 2500 parts per million, after ten days; for Post Emergent Herbicidal, Corn: Table III; for Post-emergent Herbicidal, Corn: Table II
Protocol: (§1) Suspensions of the test compounds were prepared by dissolving one gram of compound in 50 milliliters of acetone in which had been dissolved 0.1 gram (10 percent of the weight of compound) of an alkylphenoxyethanol sufactant, as an emulsifying or dispersing agent. The resulting solution was mixed into 160 milliliters of water to give roughly 200 milliliters of a suspension containing the compound in finely divided form. The thus prepared stock suspension contained 0.5 percent by weight of compound. The test concentrations employed in the tests described below were obtained by diluting the stock suspension with water. The test procedures were as follows:
(§2) Experiments were also conducted to determine the phytotoxicity of representative compositions with respect to healthy fresh plants. Solutions of the compounds were prepared as described above to provide a concentration of 2500 parts per million of the test compound. The test plants were sprayed in accordance with the procedure described above for the Mite Foliage Spray Test so as to deliver approximately 100 milliliters of test solutions to the leaves of each plant tested. The sprayed plants and controls were set aside for approximately one hour to allow the solutions to dry and were then placed in the greenhouse. After ten days the plants were visually inspected to determine the extent of foliage injury. A rating of 1 indicates no perceptible injury; 5 indicates the plant was dead and ratings of 2, 3 and 4 indicate intermediate degrees of injury based upon the number and extent to which leaves were injured.

Perennial rye grass = test: Preliminary herbicide seed germination test (pre-emergent), perennial rye grass; type: in vivo, Solium perenne; design: key: 5: no seedling emerged; 4: few seedlings emerged and/or very severe stunting; 3: moderate reduction in stand and/or moderate stunting.; 2: very slight reduction in stand and/or slight stunting; 1: no injury, seedlings appear no different with respect to stand or growth than untreated controls; details: ten to twelve days after application
Protocol: as §1
(§3) The following seeds were used in this test:
Perennial rye grass--Solium perenne
(§4) Two […] mixtures were prepared as follows:
(§5) Each of the above mixtures was rolled separately in 5 gallon containers for approximately one-half hour on ball mill to insure uniform mixing of seeds and soil. For each compound four 3-inch pots were filled with soil to within 11/2 inches of top of pots. To two of these pots were added 70 cc. of Mixture I. To the remaining 2 pots were added 70 cc. of Mixture II. The seed-soil mixture was tamped firmly, and the pots were removed to the greenhouse and watered lightly. About 2 hours after planting, 25 milliliters of the test formulation were added to one pot containing Mixture I and one pot containing Mixture II. An equal volume of a water solution containing acetone and an emulsifier in the same concentration as the herbicidal mixture but without the candidate herbicide was also added to each of the soil-seed mixtures. These pots are used as check or control units. The test compounds were formulated by diluting the stock suspension with water to obtain the desired concentration of the compound in parts per million of the final formulation. Each compound was tested at the same concentration. […] Ratings were made according to the following designations: […]

Bean = test: Post-emergent herbicidal test, bean; type: in vivo; design: key: 1: no perceptible injury; 2: intermediate degrees of injury; 3: intermediate degrees of injury; 4: intermediate degrees of injury; 5: the plant was dead; details: 2500 parts per million, after ten days; for Post Emergent Herbicidal, Bean: Table III; for Post-emergent Herbicidal, Bean: Table II
Protocol: as §1, §2

Tomato = test: Post-emergent herbicidal test, tomato; type: in vivo; design: key: 1: no perceptible injury; 2: intermediate degrees of injury; 3: intermediate degrees of injury; 4: intermediate degrees of injury; 5: the plant was dead; details: 2500 parts per million, after ten days; for Post Emergent Herbicidal, Tomato: Table III; for Post-emergent Herbicidal, Tomato: Table II
Protocol: as §1, §2

Crabgrass = test: Preliminary herbicide seed germination test (pre-emergent), crabgrass; type: in vivo, Digitaria sanguinalis; design: key: 5: no seedling emerged; 4: few seedlings emerged and/or very severe stunting; 3: moderate reduction in stand and/or moderate stunting.; 2: very slight reduction in stand and/or slight stunting; 1: no injury, seedlings appear no different with respect to stand or growth than untreated controls; details: ten to twelve days after application
Protocol: as §1, §3
Crabgrass--Digitaria sanguinalis
as §4, §5

Cotton = test: Post-emergent herbicidal test, cotton; type: in vivo; design: key: 1: no perceptible injury; 2: intermediate degrees of injury; 3: intermediate degrees of injury; 4: intermediate degrees of injury; 5: the plant was dead; details: 2500 parts per million, after ten days; for Post Emergent Herbicidal, Cotton: Table III; for Post-emergent Herbicidal, Cotton: Table II
Protocol: as §1, §2

Soybean = test: Post-emergent herbicidal test, soybean; type: in vivo; design: key: 1: no perceptible injury; 2: intermediate degrees of injury; 3: intermediate degrees of injury; 4: intermediate degrees of injury; 5: the plant was dead; details: 2500 parts per million, after ten days; for Post Emergent Herbicidal, Soybean: Table III; for Post-emergent Herbicidal, Soybean: Table II
Protocol: as §1, §2

[1] = test system: two-spotted mite (adults and nymphal stages); test: Mite Foliage Spray Test (adults and nymphs); type: in vivo, Tetranychus urticae (Koch); design: key to Miticidal, Adult: A: Excellent Control; B: Partial Control; No Control; details: for LC50: Tetranychus urticae, foliar, Table III, ppm required for a 50 percent kill of mites, read-out: Miticidal LD50, Adult; for Miticidal, Adult: Table II, mortality count after four days
Protocol: Suspensions of the test compounds were prepared by dissolving one gram of compound in 50 milliliters of acetone in which had been dissolved 0.1 gram (10 percent of the weight of compound) of an alkylphenoxyethanol sufactant, as an emulsifying or dispersing agent. The resulting solution was mixed into 160 milliliters of water to give roughly 200 milliliters of a suspension containing the compound in finely divided form. The thus prepared stock suspension contained 0.5 percent by weight of compound. The test concentrations employed in the tests described below were obtained by diluting the stock suspension with water. The test procedures were as follows: Adults and nymphal stages of the two-spotted mite (Tetranychus urticae (Koch)), reared on Tender-green beam plants at 80±5° F. and 50±5 percent relative humidity, were the tests organisms. Infested leaves from a stock culture were placed of the primary leaves of two bean plants six to eight inches in height, growing in a two-and-a-half inch clay pot. 150-200 Mites, a sufficient number for testing, transferred from the excised leaves to the fresh plants in a period of twenty-four hours. Following the twenty-four hour transfer period, the excised leaves were removed from the infested plants. The test compounds were formulated by diluting the stock suspension with water to provide suspensions containing the desired amount of test compound per million parts of final formulation. The potted plants (one pot per compound) were placed on a revolving turntable and sprayed with 100-110 milliliters of tests compound formulation by use of a DeVilbis spray gun set at 40 psi, air pressure. This application, which lasted 30 seconds, was sufficient to wet the plants to run-off. As a control, 100-110 milliliters of a water solution containing acetone and emulsifier in the same concentrations as the test compound formulation, but containing no test compound, were also sprayed on infested plants. The sprayed plants were held at 80±5° F. and 50±5 percent relative humidity for four days, after which, a mortality count of motile forms was made on the leaves of the test plants. Any individual which was capable of locomotion upon prodding was considered living. In these tests the pesticidal activity of the compounds against mites and mite eggs was rated as follows: Tests were conducted in accordance with the procedures given at pages 17 to 21 supra. The results are expressed in the same manner as used in Table II, except with respect to miticidal activity. For mite adult and mite egg comparison purposes, results are given in parts per million (ppm) required for a 50 percent kill of mites or eggs, respectively.

[2] = test system: Red root pigweed (Amaranthus); test: Preliminary herbicide seed germination test (pre-emergent), red root pigweed; type: in vivo, Amaranthus retroflexus; design: key: 5: no seedling emerged; 4: few seedlings emerged and/or very severe stunting; 3: moderate reduction in stand and/or moderate stunting.; 2: very slight reduction in stand and/or slight stunting; 1: no injury, seedlings appear no different with respect to stand or growth than untreated controls; details: ten to twelve days after application
Protocol: as §1, §3
Red root pigweed--Amaranthus retroflexus
as §4, §5

Row | Structure (SMILES) | Post Emergent Herbicidal, Corn (Corn) | Pre-emergent Herbicidal, Rye (Perennial rye grass; Table III) | Post Emergent Herbicidal, Bean (Bean) | Post Emergent Herbicidal, Tomato (Tomato) | Pre-emergent Herbicidal, Crabgrass (Crabgrass; Table III) | Post Emergent Herbicidal, Cotton (Cotton) | Post Emergent Herbicidal, Soybean (Soybean) | LC50 [1] [µg/mL] | Pre-emergent Herbicidal, Amaranthus ([2]; Table III) | Post-emergent Herbicidal, Corn (Corn) | Pre-emergent Herbicidal, Rye (Perennial rye grass; Table II) | Post-emergent Herbicidal, Bean (Bean) | Post-emergent Herbicidal, Tomato (Tomato) | Pre-emergent Herbicidal, Crabgrass (Crabgrass; Table II) | Post-emergent Herbicidal, Cotton (Cotton) | Post-emergent Herbicidal, Soybean (Soybean) | Miticidal, Adult [1] | Pre-emergent Herbicidal, Amaranthus ([2]; Table II)
1 | CCCCCCCCCC(=O)OC1=C(c2ccccc2C)C(=O)C2CCCCC12 (stereo not drawn) [drawing 15] | 5 | 5 | 2 | 1 | 3 | 3 | 3 | 2 (≈ 5.04 µM) | 3 | – | – | – | – | – | – | – | – | –
2 | CCCCCCCCCC(=O)OC1=C(c2cc(C)ccc2C)C(=O)c2ccccc21 [reference compound] | 1 | 1 | 1 | 1 | 1 | 1 | 0 | 500 (≈ 1240 µM) | 1 | – | – | – | – | – | – | – | – | –
3 | CCCCCCCCCC(=O)OC1=C(c2ccccc2C)C(=O)c2ccccc21 [reference compound] | 1 | 1 | 1 | 1 | 1 | 1 | 0 | 500 (≈ 1280 µM) | 1 | – | – | – | – | – | – | – | – | –
4 | CCCCC(CC)C(=O)OC1=C(c2ccccc2C)C(=O)c2ccccc21 (stereo not drawn) [reference compound] | 1 | 1 | 1 | 1 | 1 | 1 | 0 | 500 (≈ 1380 µM) | 1 | – | – | – | – | – | – | – | – | –
5 | CCCCCCCCCCCCCCCC(=O)OC1=C(c2cc(C)ccc2C)C(=O)C2CCCCC12 (stereo not drawn) [Compound 33] | – | – | – | – | – | – | – | – | – | 1 | 1 | 1 | 1 | 1 | 1 | 1 | A | 1
6 | CCCCCCCCCCCCCCCC(=O)OC1=C(c2ccccc2C)C(=O)c2ccccc21 [reference compound] | 1 | 1 | 1 | 1 | 1 | 1 | 0 | 500 (≈ 1050 µM) | 1 | – | – | – | – | – | – | – | – | –
7 | CCCCCCCCCC(=O)OC1=C(c2ccccc2C)C(=O)C2CCCCC12 (stereo not drawn) [Compound 23] | – | – | – | – | – | – | – | – | – | 5 | 5 | 2 | 1 | 3 | 3 | 3 | A | 3
8 | Cc1ccc(C2=C(OC(=O)c3ccccc3)CCC2=O)c(C)c1 [Compound 10] | – | – | – | – | – | – | – | – | – | 3 | 3 | 3 | 1 | 2 | 1 | 1 | C | 1
9 | Cc1ccccc1C1=C(OC(=O)C(C)C)C2CCCCC2C1=O (stereo not drawn) [Compound 20] | – | – | – | – | – | – | – | – | – | 5 | 4 | 3 | 1 | 3 | 3 | 3 | A | 3
10 | Cc1ccc(C2=C(OC(=O)c3ccccc3)C3CCCCC3C2=O)c(C)c1 (stereo not drawn) [Compound 27, 3-benzoyloxy-2-(2',4'-dimethylphenyl)-4,5,6,7,8,9-hexahydro-2-indenone] | – | – | – | – | – | – | – | – | – | 4 | 5 | 1 | 2 | 5 | 2 | 2 | A | 4
11 | CC(=O)OC1=C(c2cc(C)ccc2C)C(=O)C2CCCCC12 (stereo not drawn) [Compound 28] | – | – | – | – | – | – | – | – | – | 3 | 3 | 2 | 1 | 2 | 1 | 2 | A | 1
12 | CCCCC(CC)C(=O)OC1=C(c2cc(C)ccc2C)C(=O)C(C)C1 (stereo not drawn) [Compound 17] | – | – | – | – | – | – | – | – | – | 3 | 3 | 3 | 1 | 1 | 3 | 3 | A | 3
